Laboratory results reported in paper PMC3822934 (Journal of Cellular and Molecular Medicine, 2012).

Assay: Comparison of blood glucose lowering with glibenclamide
Format: in vivo
Settings: data not shown

## COc1ccc(Cl)cc1C(=O)NCCc1ccc(S(=O)(=O)NC(=O)NC2CCCCC2)cc1 [glibenclamide]
  blood glucose lowering activity compared with EH-36: comparable blood glucose lowering activities
  onset of the effect compared with EH-36: faster
